# Reference: patent publication US20120059162A1, “FUSED IMIDAZOLE DERIVATIVE HAVING TTK INHIBITORY ACTION” (Oncotherapy Science, Inc., priority 2009, published 2012)
# Read-outs that look alike come from different tables or passages of the source.
# Tests used:
# A549 = A549 assay: screening of cancer cell growth inhibiting compound; format: cell-based; conditions: Homo sapiens, A549 cells, read-out: A549 IC50
# How it was run: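 A549 cells (1×10^4/ml) in D-MEM with 10% FBS were pre-incubated one day at 37 °C, then exposed to compound dilutions for three further days. Viable cell number read by WST-8 (1–4 hours), absorbance 450 nm (reference 620 nm); inhibition calculated relative to untreated wells.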
# TTK = molecular target: T1, TTK (Homo sapiens, UniProt P33981); experiment: TTK assay: screening of TTK kinase activity suppressing action using p38 MAPK peptide; format: biochemical; conditions: read-out: TTK IC50
# T1 sequence (P33981 1-857): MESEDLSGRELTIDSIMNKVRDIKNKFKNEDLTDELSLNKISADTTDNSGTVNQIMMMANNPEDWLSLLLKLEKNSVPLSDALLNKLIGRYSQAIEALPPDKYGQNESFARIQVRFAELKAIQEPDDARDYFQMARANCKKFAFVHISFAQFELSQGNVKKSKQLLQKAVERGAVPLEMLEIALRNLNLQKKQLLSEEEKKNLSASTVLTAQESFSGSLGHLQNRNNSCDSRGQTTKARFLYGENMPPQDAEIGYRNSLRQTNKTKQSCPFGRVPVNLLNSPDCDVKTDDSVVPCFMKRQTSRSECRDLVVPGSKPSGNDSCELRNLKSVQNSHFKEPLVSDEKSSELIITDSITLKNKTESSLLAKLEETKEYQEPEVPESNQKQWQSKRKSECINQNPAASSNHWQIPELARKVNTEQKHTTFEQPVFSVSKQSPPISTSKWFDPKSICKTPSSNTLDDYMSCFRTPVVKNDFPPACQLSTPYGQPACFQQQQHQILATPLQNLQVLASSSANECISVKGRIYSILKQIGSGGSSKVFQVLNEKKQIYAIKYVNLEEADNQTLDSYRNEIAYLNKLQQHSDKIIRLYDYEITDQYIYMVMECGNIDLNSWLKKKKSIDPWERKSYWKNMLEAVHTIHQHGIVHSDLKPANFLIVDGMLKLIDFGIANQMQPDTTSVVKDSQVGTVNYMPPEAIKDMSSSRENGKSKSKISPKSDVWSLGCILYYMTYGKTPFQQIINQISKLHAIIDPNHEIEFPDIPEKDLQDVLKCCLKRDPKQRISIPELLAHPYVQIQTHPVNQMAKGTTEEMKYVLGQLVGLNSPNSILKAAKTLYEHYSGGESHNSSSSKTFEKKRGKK
# How it was run: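 TTK (4 μg/ml in enzyme solution) mixed with p38 MAPK peptide and ATP (each 60 μM in substrate solution) in Tris-HCl pH 7.5 with MgCl2, DTT, Na3VO4, β-glycerophosphate, BSA. Reaction aliquot captured on NeutrAvidin plate, detected with Eu-labelled anti-mouse IgG by time-resolved fluorescence; inhibition relative to no-compound signal.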
SMILES,"IC50 (A549; 72 h, three days, WST-8)",IC50 (TTK; p38 MAPK peptide substrate),IC50 (A549; values given as IC50 intervals),IC50 (TTK)
C#CC(CC)(CC)Nc1cc(NCC2CCOCC2)c2ncc(-c3ccc(C(=O)NC4CC4)cc3)n2n1 [Example 2-76],500 to 1000 nM,18.9 nM,–,–
CC(C)CNc1cc(NCC2CCOCC2)c2ncc(-c3ccc(C(=O)NC4CC4)cc3)n2n1 [Example 2-22],50 to 500 nM,6.2 nM,–,–
CC(C)(Nc1cc(NCC2CCOCC2)c2ncc(-c3ccc(C(=O)NC4CC4)c(Cl)c3)n2n1)C(F)(F)F [Example 2-220],–,–,≤ 50 nM,3.9 nM
CC1(C)CCC(Oc2cc(NCC3CCOCC3)c3ncc(-c4ccc(C(=O)NC5CC5)cc4)n3n2)CC1 [Example 2-187],–,–,500 to 1000 nM,7.8 nM
CC(=O)N1CC=C(c2cc(NCC3CCOCC3)c3ncc(-c4ccc(C(=O)NC5CC5)cc4)n3n2)CC1 [Example 2-213],–,–,50 to 500 nM,12 nM
Nc1c(F)cccc1Oc1cc(NCC2CCOCC2)c2ncc(-c3ccc(C(=O)NC4CC4)cc3)n2n1 [Example 2-98],≤ 50 nM,2.4 nM,–,–
Nc1cccc(Oc2cc(NCC3CCOCC3)c3ncc(-c4ccc(C(=O)NC5CC5)cc4)n3n2)c1 [Example 2-91],≤ 50 nM,2.3 nM,–,–
CC1(Nc2cc(NCC3CCOCC3)c3ncc(-c4ccc(C(=O)NC5CC5)cc4)n3n2)CCOCC1 [Example 2-79],50 to 500 nM,5.9 nM,–,–
CC(=O)N1CCC(CNc2nc(-c3ccc(C#N)cc3)cn3c(-c4ccc(C(=O)NC5CC5)cc4)cnc23)CC1 [Example 1-233],500 to 1000 nM,20.2 nM,–,–
COCCCCNc1cc(NC2CCCCC2)nn2c(-c3ccc(C(=O)NC4CC4)cc3)cnc12 [Example 2-138],50 to 500 nM,5.5 nM,–,–
O=C(NC1CC1)c1ccc(-c2cnc3c(NCC4CCOCC4)cc(NC4CC5CCCC(C5)C4)nn23)cc1 (stereo not drawn) [Example 2-38],≤ 50 nM,4.5 nM,–,–
C#CC(C)(C)Nc1cc(NCC2CCOCC2)c2ncc(-c3ccc(C(=O)NC4CC4)cc3)n2n1 [Example 2-85],1000 to 10000 nM,4 nM,–,–

# Continued, values first:
"IC50 (A549; 72 h, three days, WST-8)",IC50 (TTK; p38 MAPK peptide substrate),IC50 (A549; values given as IC50 intervals),IC50 (TTK),SMILES
≤ 50 nM,2.9 nM,–,–,CC1CCCCC1Nc1cc(NCC2CCOCC2)c2ncc(-c3ccc(C(=O)NC4CC4)cc3)n2n1 (stereo not drawn) [Example 2-63]
50 to 500 nM,6.8 nM,–,–,O=C(NC1CC1)c1ccc(-c2cnc3c(NCC4CC4)cc(NC4CCCCC4)nn23)cc1 [Example 2-132]
≤ 50 nM,2.7 nM,–,–,COc1ccc(Oc2cc(NCC3CCOCC3)c3ncc(-c4ccc(C(=O)NC5CC5)cc4)n3n2)c(F)c1 [Example 2-112]
50 to 500 nM,20.4 nM,–,–,N#Cc1ccc(-c2cn3c(-c4ccc(C(=O)NC5CC5)cc4)cnc3c(NCCN3CCOCC3)n2)cc1 [Example 1-216]
–,–,500 to 1000 nM,6.8 nM,O=C(NC1CC1)c1ccc(-c2cnc3c(NCC4CCOCC4)cc(OC4CCC(C(F)(F)F)CC4)nn23)cc1 (stereo not drawn) [Example 2-186]
–,–,50 to 500 nM,14.1 nM,CC(Oc1cc(NCC2CCOCC2)c2ncc(-c3ccc(C(=O)NC4CC4)cc3)n2n1)c1ccccc1 (stereo not drawn) [Example 2-174]
50 to 500 nM,6.8 nM,–,–,CCC(CC)CNc1cc(NC2CCCCC2)nn2c(-c3ccc(C(=O)NC4CC4)cc3)cnc12 [Example 2-133]
50 to 500 nM,7.4 nM,–,–,O=C(NC1CC1)c1ccc(-c2cnc3c(NCC4CCC4)cc(NC4CCCCC4)nn23)cc1 [Example 2-128]
–,–,1000 to 10000 nM,16.1 nM,O=C(NC1CC1)c1ccc(-c2cnc3c(NCC4CCOCC4)cc(OCC45CC6CC(CC(C6)C4)C5)nn23)cc1 [Example 2-190]
50 to 500 nM,3 nM,–,–,O=C(NC1CC1)c1ccc(-c2cnc3c(NCC(F)(F)F)cc(NC4CCCCC4)nn23)cc1 [Example 2-145]
50 to 500 nM,7.5 nM,–,–,CC(Nc1cc(NCC2CCOCC2)c2ncc(-c3ccc(C(=O)NC4CC4)cc3)n2n1)c1cccs1 (stereo not drawn) [Example 2-84]
50 to 500 nM,14.3 nM,–,–,N#Cc1ccc(-c2cn3c(-c4ccc(C(=O)NC5CC5)cc4)cnc3c(NCCCCO)n2)cc1 [Example 1-238]
